# Data published in patent US20060135587A1, “Method and compounds for promoting healing and reducing inflammation” (priority 2002, published 2006).
# Legend:
# myocardial infarction = test: Clinical comparison of Compound 2 and Riboxin in subacute myocardial infarction (Example 25); assay type: in vivo, human
# Procedure: A total of 94 patients were examined; of these:
# Conventional therapy as for example 24 was given to 30 patients. Each patient continued to receive the treatment which s/he had been given prior to commencement of the trial. Compound 2 was administered in addition to the previous treatment.
# All the patients underwent standard laboratory tests prior to commencement of Compound 2 therapy, 14 days after the beginning of the course and upon completion of the course. The tests included clinical blood analysis; general urine analysis; evaluation of creatinine, bilirubin, transaminase activity, blood sugar, cholesterol and β-lipoproteins, malonic dialdehyde, Schiff bases, zinc, iron, copper, plasma potassium and sodium, prothrombin and fibrinogen; and an ECG examination in dynamics.
# All the patients received conventional therapy, i.e. nitrates, anticoagulants and/or hypotensive agents as appropriate.
# Combination therapy included Compound 2 (1st group—32 patients) or Riboxin (2nd group—18 patients). The agents were administered at a dose of 200 mg three times per day.
# [1] = tested on: regeneration of liver after partial hepatectomy; test: Liver regeneration after partial hepatectomy in rats; assay type: in vivo
# Procedure: Partial hepatectomy was performed using the conventional method (Higgins and Anderson, 1931) by removing the left lateral and central lobes of the liver from 80 male white rats, weighing 180-200 g.
# Compound 2, Compound 4, Compound 5 or Compound 6 was administered to the experimental groups intraperitoneally in equimolar doses of 0.1 mM/kg and 0.2 mM/kg. These optimal doses were determined in preliminary experiments. The control group received intraperitoneal injections of saline solution. The compounds were administered on the day after the operation and then one injection was given daily over the course of 7 days, since maximum growth of the liver mass in rats is observed in the first 7 days after partial hepatectomy (Solopaev, 1980).
# The effectiveness of the compounds was compared to that of a combination of non-steroid anabolic regeneration stimulators which are used in the treatment of liver pathology, namely Riboxin and potassium orotate at a dose of 0.2 mM/kg each (Rychnev and Frolov, 1984).
# For quantitative evaluation of the regeneration process in the liver the coefficient of regeneration completion as determined by the formula below was used: [formula] where
# Stimulation of the regeneration of tissue after hepatectomy in response to different medicinal preparations is associated with an increase in the synthesis of nucleic acids, as indicated by the increase in the content of RNA and DNA in the regenerated tissue. Quantitative analysis of DNA and RNA was performed by centrifugation. […] The enzymic component of anti-oxidant protection was also assessed on the basis of the activity of catalase and superoxidedismutase (SOD).
# 5 ml of […] of HCIO4 solution were added to the sample (100 mg). In order to ensure complete sedimentation of the acid-insoluble fraction, the beakers were put in ice for 15 minutes. Then they were centrifuged for 10 minutes at 5000 revolutions per minute. The sediment was washed twice with 0.2 M HCIO4. After the final centrifugation, the walls of the beaker were carefully dried with gauze and filter paper. The sediment was ground down with a glass pestle, suspended in 1 ml of water and then 1 ml of 0.6 M KON solution was added at room temperature. Hydrolysis was performed over the course of 1 hour at 37° C., then the beakers were put in ice to stop the hydrolysis process. 4 ml of the 0.6 M solution were added to each beaker and the beakers were left in ice for another 15 minutes, then centrifuged for 15 minutes at 5000 revolutions per minute. The supernatant was used to determine the RNA by UV absorption at 260 nm and 290 nm compared to the control sample containing 0.4M of HCIO4). The amount of RNA in μg per 1 ml of the supernatant was calculated using the following formula: [formula] where C=is the RNA concentration (μg/ml)
# DNA analysis was carried out on the sediment remaining after the alkaline hydrolysis used to determine RNA. 0.5 M of HCIO4 (5 ml per sample) was poured into the dried beaker containing the sediment. Hydrolysis was performed in a boiling water bath for 20 minutes. The amount of DNA in μg per 1 ml of the hydrolysate was calculated using the following formula: [formula] where C=is the DNA concentration (μg/ml). Catalase Activity
# Catalase activity was determined using the permanganate method. The optimal amount of the substrate (3 ml of 1% H2O2) and 1 ml of the enzyme were added to 10 ml of phosphate buffer, pH 7.8. After 10 minutes the reaction was stopped by adding 1.5 ml of H2SO4 (50%). The remaining hydrogen peroxide was filtered with 0.1M of KMnO4 solution. Catalase activity was calculated on the basis that 1 ml of 0.1M of KMnO4 solution corresponds to […] of H2O2.
# SOD activity was determined using the dianisidine method, which is based on the fact that under ultraviolet irradiation Riboflavin (Rb) is converted to an excited (ionised) state and therefore becomes able to attack reduced dianisidine (DH2). […]
# [2] = tested on: acute Con A-induced inflammation; test: Acute Con A-induced inflammation (paw oedema) in mice; assay type: in vivo
# Procedure: Saline solution was similarly administered to the control animals. There were 10 mice in each group. After one hour, con A at a dose of 100 mkg/20 g of body weight was administered by sub-plantar injection into the plantar aponeurosis of the left paws of mice of both the experimental and control groups. The same amount of saline splution was injected into the contralateral paws. After one hour, the mice were killed and the experimental and control paws were weighed to assess the reaction index of the inflammation in the ankle-joint (Liubimov et al, 1999).
# The anti-inflammatory effect of Compound 2 and Compound 7 was compared in male mice weighing 18-22 g, using the model described in Example 9. The ED50, i.e. the dose reducing paw ooedema by 50% one hour after injection of Concanavalin A, was calculated.
# [3] = tested on: liver after partial hepatectomy; test: Morphological study of the liver after partial hepatectomy; assay type: in vivo, rats; conditions: 0.2 MM/kg; one week after hepatectomy
# Procedure: Morphological methods are highly informative in the assessment of repair processes. Histological tests of the liver after partial hepatectomy were performed using generally accepted methods. Microscopic sections were stained with hematoxylin and eosin using Van Gieson's methodology. Liver tests after partial hepatectomy were performed on 8 groups of animals, totalling 37 rats. All animals were examined one week after hepatectomy.
# [4] = tested on: cryogenic injuries of the sigmoid colon; test: Cryogenic damage of the colon, model of ulcerative colitis; assay type: in vivo, rats; conditions: day 7; oral; Methyl uracil 180 mg/kg, Potassium orotate 50 mg/kg + Riboxin 50 mg/kg, Sulfasalazine 2 g/kg; one figure for the comparison agents
# Procedure: A model of cryogenic damage of the colon was used in this experiment to simulate ulcerative colitis. Cryogenic injuries of the sigmoid colon of rats were induced by pressing a metal rod of […] in diameter cooled in liquid nitrogen to the serous membrane of the colon for 10 seconds under ether anaesthesia.
# Tests were performed on 67 male rats weighing 180-200 g, with 8 animals in each group. Animals were kept in separate cages, with normal food and water ad libitum. The test compounds were administered orally on the second day after the operation, and then daily until healing was complete. Compound 2 or Compound 6 was administered to test animals at a dose of 20-50 mg/kg. The following agents were used for comparison:
# The nature of the healing of the ulcer injury was examined morphologically on days 1, 3 and 7. […] The inflammatory process extends beyond the injured area into the adjacent areas, and beyond the peritoneum into fatty connective tissue.
# [5] = tested on: neurogenic dystrophy of the myocardium; test: Myocardial infarction model (electrostimulation), enzymes in rabbit myocardium; assay type: in vivo, rabbits; conditions: 5 mg/kg; 48 hours after electrostimulation
# Text: The effect of Compound 2 on myocardial tissue in an experimental model of myocardial infarction was examined. In this model system neurogenic dystrophy of the myocardium was induced in rats or rabbits by electrical stimulation of the reflexogenic zone of the aortic arch by implanted electrodes for a period of three hours. […] These changes are accompanied by changes in biochemical indicators such as creatine phosphate, cAMP, and calcium ion concentrations, and changes in the activity of redox enzymes such as succinate dehydrogenase, lactate dehydrogenase, and glucose-6-phosphate dehydrogenase. At a later stage organic lesions of the myocardium such as necrotic and fibrosclerotic foci can be observed.
# The effect of Compound 2 given intraperitoneally or orally on these indicators was examined in rats and rabbits following electrostimulation as described above. The effects on levels of creatine phosphate in rat myocardial are shown in Table 19, and the effects on adenosine triphosphatase (ATPase), succinate dehydrogenase and glucose-6-phosphate dehydrogenase rabbit myocardium are shown in Table 20. The effects on cAMP and Ca^++ levels in rabbit myocardial tissue are shown in FIG. 5, and effects on creatine kinase in rabbit myocardium and blood and the levels of creatine phosphate in myocardium are shown in FIG. 6.
# white male mice = conditions: for LD50: intraperitoneal injection, white male mice, 14 days observation
# Procedure: The acute toxicity of 1,3-dialkyl-4,5-bis (N-methylcarbamoyl)imidazolium salts was assessed following intraperitoneal injection into 200 white male mice weighing 18 to 20 g. Dead animals were counted daily after the administration of the test substance.
# [6] = tested on: lesions of the gastric mucosa; test: Gastric lesions induced by immobilization and hypothermia; assay type: in vivo, rats; set-up: % reduction of degree of ulceration / % reduction of ulcerated area: concentration or dose not given beside the values; conditions: Protective effect, 30 minutes before the test
# Procedure: (§1) The models used gastric ulcers induced by
# b) Immobilization and hypothermia (induced by water cooling);
# (§2) The compounds were administered intraperitoneally at a dose of 20 mg/kg; in the cryogenic ulcer model compound 2 was administered either intraperitoneally (10 mg/kg) or orally (20 mg/kg twice daily, ie. a total of 40 mg/kg/day) and was compared to orally-administered gastrocepin (1 mg/kg twice daily, ie. a total of 2 mg/kg/day).
# [7] = tested on: cryogenic ulcer of the gastric mucosa; test: Cryogenic gastric ulcer in rats; assay type: in vivo; conditions: healing effect over the course of 14 days; regimen not printed in the row
# Procedure: as §1
# c) Ulcer created by local wounding with a cryogenic probe using a method similar to that described above for mouth ulcers.
# as §2
# [8] = tested on: lesions of the gastric mucosa; test: Gastric lesions induced by electrostimulation of immobilised rats; assay type: in vivo
# Procedure: as §1
# a) Electrostimulation of immobilised rats for 3 hours;
# as §2
# [9] = 200 mg three times per day plus conventional therapy
# [10] = Table 3, 50 mg/kg intra-peritoneally one hour before Con A, male CBA mice
# [11] = Healing effect over the course of 3 days
# [12] = Protective effect, 30 minutes before the test
# [13] = Table 4, 0.005M dose (Compound 2 19 mg/kg, Compound 7 16.4 mg/kg) + Con A
# [14] = Table 4, 0.01M dose (Compound 2 38 mg/kg, Compound 7 32 mg/kg) + Con A
# [15] = Table 4, 0.015M dose (Compound 2 57 mg/kg, Compound 7 49 mg/kg) + Con A
# [16] = Table 4, 0.02M dose (Compound 2 76 mg/kg, Compound 7 65.6 mg/kg) + Con A
compound,measurement,setting,value
"OC[C@H]1O[C@@H](n2cnc3c(O)ncnc32)[C@H](O)[C@@H]1O [Riboxin, inosine, reference compound]",cholesterol levels,myocardial infarction; [9],85.5%
same,level of prothrombin,myocardial infarction; [9],88.7%
same,ejection fraction,"myocardial infarction; 200 mg three times per day plus conventional therapy, 54.4±1.5% in the absence of the agent",56.8±1.3%
same,superoxide dismutase levels,"myocardial infarction; after therapy, 18-20 before treatment, norm 23",21.5 conventional units
same,level of Schiff bases,"myocardial infarction; after therapy, 75 before treatment, normal 60",62.6 conventional units
same,cases in which cicatrisation took place one or two days earlier,myocardial infarction; patients with repeated myocardial infarct,12%
"CC[n+]1cn(C)c(C(=O)NC)c1C(=O)NC.O=C([O-])c1ccccc1 [Compound 5, 1-methyl-3-ethyl-4,5-bis(N-methylcarbamoyl)-imidazolium benzoate]",Catalase E activity,[1]; 0.2 mM/kg,17.3 ± 2.6 μgM/min/g tissue × 1000
same,DNA content (in mg/g of tissue),[1]; 0.2 mM/kg,3.76 ± 0.29 mg/g of tissue
same,Protein content,[1]; 0.2 mM/kg,86.8 ± 6.9 Mg/g tissue
same,RNA content (mg/g of tissue),[1]; 0.2 mM/kg,7.46 ± 0.14 mg/g of tissue
same,SOD activity,[1]; 0.2 mM/kg,103.0 ± 4.4 Units/g tissue
same,Level of recovery,"[1]; 0.2 mM/kg intraperitoneally, 7 days, hepatectomy alone = 100",120.3
same,Reaction index (%),[2]; [10],7.2 ± 1.8 %
same,histological findings in the liver,[3],some of the animals demonstrated hepatocyte hypertrophy combined with subacute hepatitis
"Cc1cc(=O)[nH]c(=O)[nH]1 [Methyl uracil, reference compound]",animals demonstrating complete healing,[4],18%
"CCn1cnc(C(=O)NC)c1C(=O)NC [Ethimizol, 1-ethylimidazole-4,5-dicarboxylic acid bis-N-methylamide, reference compound]",ATPase,[5],0.43 ± 0.11 µM/mg/min
same,Glucose-6-phosphate dehydrogenase (optical density units),[5],5.8 ± 0.7 optical density units
same,Succinate dehydrogenase (optical density units),[5],39.7 ± 7.4 optical density units
"1,3-dimethyl-4,5-bis(N-methylcarbamoyl)-imidazolium benzenesulfonate [Compound 1]",toxicity,white male mice,very low toxicity
same,LD50,white male mice,1833 mg/kg
same,Reaction index (%),"[2]; Table 3, 10 mg/kg intra-peritoneally one hour before Con A, male CBA mice",14.6 ± 3.5%
same,Reaction index (%),[2]; [10],5.3 ± 2.0 %
same,% reduction of degree of ulceration,[6],0%
same,% reduction of ulcerated area,[6],0%
same,Area of lesion,[6],10.1 ± 1.4
same,Average number of lesions per animal,[6]; 20 mg/kg intraperitoneally,10.2 ± 1.2
same,% reduction of degree of ulceration,[7],53%
same,Average number of lesions per animal,[7],8.8 ± 1.9
same,% reduction of degree of ulceration,[8]; [11],18%
same,Average number of lesions per animal,[8]; [11],2.8 ± 0.7
same,% reduction of degree of ulceration,[8]; [12],0%
same,% reduction of ulcerated area,[8]; [12],0%
same,Area of lesion,[8]; [12],15.0 ± 4.7
same,Average number of lesions per animal,"[8]; Protective effect, 30 minutes before the test, 20 mg/kg intraperitoneally",7.0 ± 0.7
"1-methyl-3-ethyl-4,5-bis(N-methylcarbamoyl)-imidazolium 2,4-dihydroxybenzoate [Compound 7]",toxicity,white male mice,very low toxicity
same,LD50,white male mice,1221 mg/kg
same,Paw oedema reduction (%),[2]; [13],60%
same,Reaction index (%),[2]; [13],6.73 ± 2.2%
same,Paw oedema reduction (%),[2]; [14],13%
same,Reaction index (%),[2]; [14],9.93 ± 2.8%
same,Paw oedema reduction (%),[2]; [15],45%
same,Reaction index (%),[2]; [15],7.2 ± 1.8%
same,Paw oedema reduction (%),[2]; [16],70%
same,Reaction index (%),[2]; [16],4.9 ± 1.7%
same,"ED50, dose reducing paw oedema by 50% one hour after injection of Concanavalin A",[2]; male mice,52 mg/kg
"O=C(O)c1cc(/N=N/c2ccc(S(=O)(=O)Nc3ccccn3)cc2)ccc1O [Sulphasalazine, Sulfasalazine, reference compound]",animals demonstrating complete healing,[4],18%
